Legend:
DU-145 [1] = assay: Antiproliferative activity against p53 deficient human DU145 cells incubated for 72 hrs by CellTiter-Glo assay; type: functional; conditions: DU-145, 72 h
[2] = molecular target: [Pyruvate dehydrogenase (acetyl-transferring)] kinase isozyme 3, mitochondrial (Homo sapiens, UniProt Q15120); assay: Inhibition of PDHK3 (unknown origin) by radiometric biochemical kinase assay
[3] = molecular target: [Pyruvate dehydrogenase (acetyl-transferring)] kinase isozyme 1, mitochondrial (Homo sapiens, UniProt Q15118); assay: Inhibition of PDHK1 (unknown origin) by radiometric biochemical kinase assay
NCI-H1299 [4] = assay: Antiproliferative activity against p53 deficient human H1299 cells incubated for 72 hrs by CellTiter-Glo assay; type: functional; conditions: NCI-H1299, 72 h
[5] = molecular target: T1, [Pyruvate dehydrogenase (acetyl-transferring)] kinase isozyme 2, mitochondrial (Homo sapiens, UniProt Q15119); assay: Inhibition of PDHK2 (unknown origin) by radiometric biochemical kinase assay
[6] = molecular target: T2, [Pyruvate dehydrogenase (acetyl-transferring)] kinase isozyme 4, mitochondrial (Homo sapiens, UniProt Q16654); assay: Inhibition of PDHK4 (unknown origin) by radiometric biochemical kinase assay
NCI-H1299 [7] = assay: Synergistic induction of apoptosis in human H1299 cells assessed as increase in apoptotic cells at 10 uM incubated for 48 hrs in presence of satra-platin by FITC Annexin-V and PI staining based flow cytometric analysis relative to control; type: functional
DU-145 [8] = assay: Induction of apoptosis in human DU145 cells assessed as increase in apoptotic cells at 30 uM incubated for 48 hrs by FITC Annexin-V and PI staining based flow cytometric analysis relative to control; type: functional
Cytochrome P450 3A4 = Cytochrome P450 3A4 (Homo sapiens, UniProt P08684); assay: Inhibition of CYP3A4 (unknown origin); type: ADME
NCI-H1299 [9] = assay: Inhibition of anchorage-independent colony formation in human H1299 cells at 20 uM incubated for 14 days by p iodonitrotetrazolium violet staining based method relative to control; type: functional; conditions: NCI-H1299, 336 h
Cytochrome P450 2C19 = Cytochrome P450 2C19 (Homo sapiens, UniProt P33261); assay: Inhibition of CYP2C19 (unknown origin); type: ADME
Cytochrome P450 2C9 = Cytochrome P450 2C9 (Homo sapiens, UniProt P11712); assay: Inhibition of CYP2C9 (unknown origin); type: ADME
Heat shock protein HSP90 = Heat shock protein HSP90 (Homo sapiens, UniProt P07900+P08238); assay: Inhibition of HSP90 (unknown origin); type: protein assay
NCI-H1299 [10] = assay: Synergistic antiproliferative activity against human H1299 cells at 20 uM incubated for 72 hrs in presence of satra-platin by CellTiter-Glo assay relative to control; type: functional; conditions: NCI-H1299, 72 h
Cytochrome P450 1A2 = molecular target: T3, Cytochrome P450 1A2 (Homo sapiens, UniProt P05177); assay: Inhibition of CYP1A2 (unknown origin); type: ADME
T3 sequence (P05177 whole entry): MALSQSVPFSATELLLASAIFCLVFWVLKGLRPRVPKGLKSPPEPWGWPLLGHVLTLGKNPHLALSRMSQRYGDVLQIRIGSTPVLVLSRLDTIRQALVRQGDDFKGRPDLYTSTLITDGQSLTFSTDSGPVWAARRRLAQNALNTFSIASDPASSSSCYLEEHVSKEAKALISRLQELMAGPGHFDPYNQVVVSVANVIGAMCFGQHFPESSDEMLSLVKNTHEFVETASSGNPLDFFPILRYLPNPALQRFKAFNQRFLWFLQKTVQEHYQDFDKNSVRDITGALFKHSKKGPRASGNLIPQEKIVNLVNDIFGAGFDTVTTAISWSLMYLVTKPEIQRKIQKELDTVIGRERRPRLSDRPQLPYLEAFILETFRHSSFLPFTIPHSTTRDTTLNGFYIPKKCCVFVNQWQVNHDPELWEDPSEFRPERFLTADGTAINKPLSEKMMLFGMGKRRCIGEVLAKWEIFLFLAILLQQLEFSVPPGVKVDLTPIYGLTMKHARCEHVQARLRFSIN

[11] = molecular target: T2, [Pyruvate dehydrogenase (acetyl-transferring)] kinase isozyme 4, mitochondrial; assay: Inhibition of PDHK4 (unknown origin) assessed as reduction in NAD measured for 30 mins
NCI-H1299 [12] = assay: Antiproliferative activity against PDHK1/2 double knockdown human H1299 cells transfected with PDHK1/2 siRNA at 10 uM incubated for 48 hrs by CellTiter-Glo assay relative to control; type: functional
NCI-H1299 [13] = assay: Induction of apoptosis in human H1299 cells assessed as increase in apoptotic cells at 30 uM incubated for 48 hrs by FITC Annexin-V and PI staining based flow cytometric analysis relative to control; type: functional
NCI-H1299 [14] = assay: Antiproliferative activity against human H1299 cells transfected with control siRNA at 10 uM incubated for 48 hrs in by CellTiter-Glo assay relative to control; type: functional
NCI-H1299 [15] = assay: Antiproliferative activity against p53 deficient human H1299 cells at 20 uM incubated for 72 hrs by CellTiter-Glo assay relative to control; type: functional
Cytochrome P450 2D6 = Cytochrome P450 2D6 (Homo sapiens, UniProt P10635); assay: Inhibition of CYP2D6 (unknown origin); type: ADME
[16] = molecular target: T1, [Pyruvate dehydrogenase (acetyl-transferring)] kinase isozyme 2, mitochondrial; assay: Inhibition of PDHK2 (unknown origin) assessed as reduction in NAD measured for 30 mins

Sequence of Cytochrome P450 2D6 (P10635 whole entry): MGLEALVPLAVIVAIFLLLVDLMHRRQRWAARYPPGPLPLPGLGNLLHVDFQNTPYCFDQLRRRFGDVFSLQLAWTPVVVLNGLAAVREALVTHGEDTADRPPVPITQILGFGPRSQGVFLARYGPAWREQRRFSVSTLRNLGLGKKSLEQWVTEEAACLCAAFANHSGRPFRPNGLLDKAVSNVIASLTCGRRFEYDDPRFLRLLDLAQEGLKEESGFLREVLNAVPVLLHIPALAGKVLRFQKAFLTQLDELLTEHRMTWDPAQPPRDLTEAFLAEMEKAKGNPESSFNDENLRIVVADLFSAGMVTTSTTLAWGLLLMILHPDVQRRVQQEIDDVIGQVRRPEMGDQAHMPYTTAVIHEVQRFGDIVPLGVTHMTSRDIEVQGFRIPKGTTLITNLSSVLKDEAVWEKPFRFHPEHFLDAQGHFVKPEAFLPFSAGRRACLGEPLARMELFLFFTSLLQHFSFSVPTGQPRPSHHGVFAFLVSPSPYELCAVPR
Sequence of Cytochrome P450 3A4 (P08684 whole entry): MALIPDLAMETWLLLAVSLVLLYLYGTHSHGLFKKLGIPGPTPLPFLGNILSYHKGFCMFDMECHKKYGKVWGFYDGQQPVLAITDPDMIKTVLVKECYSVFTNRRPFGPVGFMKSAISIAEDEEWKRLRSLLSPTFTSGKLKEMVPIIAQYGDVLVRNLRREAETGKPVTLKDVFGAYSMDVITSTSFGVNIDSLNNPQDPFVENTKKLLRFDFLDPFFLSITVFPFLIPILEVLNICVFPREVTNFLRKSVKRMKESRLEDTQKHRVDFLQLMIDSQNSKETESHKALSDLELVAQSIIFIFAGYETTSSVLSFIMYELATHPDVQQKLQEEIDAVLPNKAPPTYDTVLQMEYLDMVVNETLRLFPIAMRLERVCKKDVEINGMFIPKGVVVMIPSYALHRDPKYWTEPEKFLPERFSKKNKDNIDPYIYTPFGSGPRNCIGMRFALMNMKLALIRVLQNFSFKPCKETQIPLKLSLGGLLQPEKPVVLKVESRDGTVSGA
Sequence of [Pyruvate dehydrogenase (acetyl-transferring)] kinase isozyme 3, mitochondrial (Q15120 whole entry): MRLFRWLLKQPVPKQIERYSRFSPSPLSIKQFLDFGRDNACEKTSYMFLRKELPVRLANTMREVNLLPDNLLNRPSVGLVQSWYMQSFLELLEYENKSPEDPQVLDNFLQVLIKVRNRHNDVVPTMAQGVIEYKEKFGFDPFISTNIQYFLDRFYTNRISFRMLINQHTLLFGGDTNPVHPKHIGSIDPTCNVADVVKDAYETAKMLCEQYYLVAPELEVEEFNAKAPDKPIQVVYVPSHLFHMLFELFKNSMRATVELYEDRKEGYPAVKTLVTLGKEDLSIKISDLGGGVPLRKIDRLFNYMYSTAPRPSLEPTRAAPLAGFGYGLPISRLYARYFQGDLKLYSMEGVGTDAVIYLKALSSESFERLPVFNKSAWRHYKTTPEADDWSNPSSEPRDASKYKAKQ
Sequence of Cytochrome P450 2C19 (P33261 whole entry): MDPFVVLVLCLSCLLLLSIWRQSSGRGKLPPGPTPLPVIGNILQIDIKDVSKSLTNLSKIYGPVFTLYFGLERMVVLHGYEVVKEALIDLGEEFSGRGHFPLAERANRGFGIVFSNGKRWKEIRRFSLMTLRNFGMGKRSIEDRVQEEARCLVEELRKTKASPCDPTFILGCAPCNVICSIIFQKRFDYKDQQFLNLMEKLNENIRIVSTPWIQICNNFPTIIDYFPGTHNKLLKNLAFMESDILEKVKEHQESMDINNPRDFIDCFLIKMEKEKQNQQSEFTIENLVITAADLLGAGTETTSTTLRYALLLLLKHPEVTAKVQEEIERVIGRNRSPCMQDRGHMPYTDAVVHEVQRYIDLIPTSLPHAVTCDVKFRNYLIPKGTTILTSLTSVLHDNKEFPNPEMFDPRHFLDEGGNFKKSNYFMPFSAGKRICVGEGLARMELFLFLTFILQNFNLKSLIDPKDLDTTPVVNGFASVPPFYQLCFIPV
Sequence of Cytochrome P450 2C9 (P11712 whole entry): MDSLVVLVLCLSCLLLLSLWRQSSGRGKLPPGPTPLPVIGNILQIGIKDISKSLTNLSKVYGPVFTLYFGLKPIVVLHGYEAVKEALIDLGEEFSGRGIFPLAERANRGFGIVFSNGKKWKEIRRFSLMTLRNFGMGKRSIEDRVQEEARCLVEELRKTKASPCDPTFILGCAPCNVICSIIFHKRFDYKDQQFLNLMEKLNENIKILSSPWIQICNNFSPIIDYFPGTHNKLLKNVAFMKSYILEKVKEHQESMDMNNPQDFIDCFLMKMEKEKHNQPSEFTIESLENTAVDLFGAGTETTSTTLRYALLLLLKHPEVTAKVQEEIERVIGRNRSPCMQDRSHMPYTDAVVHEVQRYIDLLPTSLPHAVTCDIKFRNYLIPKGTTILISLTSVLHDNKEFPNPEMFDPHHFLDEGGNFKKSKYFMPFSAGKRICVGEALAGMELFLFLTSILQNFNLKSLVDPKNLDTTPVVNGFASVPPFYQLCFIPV
T2 sequence (Q16654 whole entry): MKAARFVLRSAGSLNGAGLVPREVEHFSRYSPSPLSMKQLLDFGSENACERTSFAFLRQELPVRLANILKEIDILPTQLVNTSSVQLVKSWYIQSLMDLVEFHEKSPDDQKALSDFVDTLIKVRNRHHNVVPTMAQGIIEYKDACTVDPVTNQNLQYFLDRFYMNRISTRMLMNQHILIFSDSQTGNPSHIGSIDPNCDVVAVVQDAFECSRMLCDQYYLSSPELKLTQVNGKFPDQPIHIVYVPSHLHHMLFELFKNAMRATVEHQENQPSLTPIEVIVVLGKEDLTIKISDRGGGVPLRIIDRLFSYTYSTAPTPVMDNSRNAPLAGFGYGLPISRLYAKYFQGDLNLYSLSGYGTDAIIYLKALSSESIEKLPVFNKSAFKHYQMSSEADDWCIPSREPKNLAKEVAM
Sequence of [Pyruvate dehydrogenase (acetyl-transferring)] kinase isozyme 1, mitochondrial (Q15118 whole entry): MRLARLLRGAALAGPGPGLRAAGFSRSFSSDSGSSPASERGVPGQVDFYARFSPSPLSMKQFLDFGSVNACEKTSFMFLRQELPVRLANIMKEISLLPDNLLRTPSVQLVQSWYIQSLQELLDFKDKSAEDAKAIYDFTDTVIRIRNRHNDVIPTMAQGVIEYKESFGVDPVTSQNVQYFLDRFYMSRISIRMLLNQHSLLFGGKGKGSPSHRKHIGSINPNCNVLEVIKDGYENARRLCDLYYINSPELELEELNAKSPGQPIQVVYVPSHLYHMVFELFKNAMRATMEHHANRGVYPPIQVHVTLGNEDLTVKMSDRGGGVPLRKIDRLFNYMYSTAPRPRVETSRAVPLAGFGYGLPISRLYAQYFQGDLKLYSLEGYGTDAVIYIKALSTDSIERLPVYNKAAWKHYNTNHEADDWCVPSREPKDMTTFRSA

CN(C)C(=O)c1ccc(N(Cc2ccc(Br)s2)C(=O)c2ccc(O)cc2O)cc1
GI50 (DU-145 [1]): 42.2 µM | IC50 [2]: 0.09 µM | IC50 [3]: 0.042 µM | GI50 (NCI-H1299 [4]): 49.8 µM | IC50 [5]: 0.018 µM | IC50 [6]: 0.008 µM

CN(C)C(=O)c1ccc(N(Cc2cnc(Br)s2)C(=O)c2ccc(O)cc2O)cc1
GI50 (DU-145 [1]): 18.9 µM | IC50 [2]: 0.09 µM | IC50 [3]: 0.024 µM | GI50 (NCI-H1299 [4]): 32.2 µM | IC50 [5]: 0.132 µM | IC50 [6]: 0.087 µM

CN(C)C(=O)c1ccc(N(Cc2ccc(C#N)cc2)C(=O)c2ccc(O)cc2O)cc1
IC50 [2]: 0.461 µM | IC50 [3]: 0.151 µM | IC50 [5]: 0.302 µM | IC50 [6]: 0.399 µM

CN(C)C(=O)c1ccc(N(Cc2ccc([N+](=O)[O-])cc2)C(=O)c2ccc(O)cc2O)cc1
GI50 (DU-145 [1]): 44.5 µM | GI50 (NCI-H1299 [4]): 97.1 µM | IC50 [5]: 0.11 µM | IC50 [6]: 0.099 µM

CNC(=O)c1ccc(N(Cc2ccc(NC(C)=O)cc2)C(=O)c2ccc(O)cc2O)cc1
IC50 [5]: 8.59 µM | IC50 [6]: 7.84 µM

CC(=O)Nc1ccc(CN(C(=O)c2ccc(O)cc2O)c2ccc(C(=O)NC3CC3)cc2)cc1
IC50 [5]: 1.96 µM | IC50 [6]: 14.8 µM

CC(=O)Nc1ccc(CN(C(=O)c2ccc(O)cc2O)c2ccc(C(=O)N3CCCCC3)cc2)cc1
IC50 [5]: 1.62 µM | IC50 [6]: 1.98 µM

CN(C)C(=O)c1ccc(N(Cc2ccc(Br)o2)C(=O)c2ccc(O)cc2O)cc1
Activity (NCI-H1299 [7]): 30 - 34% | Activity (DU-145 [8]): 60% | GI50 (DU-145 [1]): 10.2 µM | IC50 (Cytochrome P450 3A4): 1.4 µM | inhibition at 20 µM (NCI-H1299 [9]): 100% | IC50 (Cytochrome P450 2C19): 4.3 µM | IC50 [2]: 0.059 µM | IC50 (Cytochrome P450 2C9): > 20 µM | IC50 [3]: 0.036 µM | IC50 (Heat shock protein HSP90): 0.83 µM | GI50 (NCI-H1299 [4]): 13.4 µM | GI50 (NCI-H1299 [10]): 5.5 µM | IC50 [5]: 0.01 µM | IC50 (Cytochrome P450 1A2): > 20 µM | IC50 [11]: 0.31 µM | Activity (NCI-H1299 [12]): 32% | Activity (NCI-H1299 [13]): 24.8% | Activity (NCI-H1299 [14]): 50% | IC50 [6]: 0.013 µM | Activity (NCI-H1299 [15]): 70% | IC50 (Cytochrome P450 2D6): > 20 µM | IC50 [16]: 2.09 µM

CN(C)C(=O)c1ccc(N(Cc2cc(Br)cs2)C(=O)c2ccc(O)cc2O)cc1
GI50 (DU-145 [1]): 41.9 µM | IC50 (Cytochrome P450 3A4): < 1 µM | IC50 (Cytochrome P450 2C19): 7.8 µM | IC50 [2]: 0.08 µM | IC50 (Cytochrome P450 2C9): 18 µM | IC50 [3]: 0.009 µM | IC50 (Heat shock protein HSP90): 5.79 µM | GI50 (NCI-H1299 [4]): 51.6 µM | IC50 [5]: 0.008 µM | IC50 (Cytochrome P450 1A2): > 20 µM | IC50 [6]: 0.005 µM | IC50 (Cytochrome P450 2D6): > 20 µM

CN(C)C(=O)c1ccc(N(Cc2ccc(F)cc2)C(=O)c2ccc(O)cc2)cc1
IC50 [5]: 2.04 µM | IC50 [6]: 0.39 µM

O=C(O)C(Cl)Cl [DICHLOROACETIC ACID]
GI50 (NCI-H1299 [10]): 8.5 µM

CN(C)C(=O)c1ccc(N(Cc2ccccc2)C(=O)c2ccc(O)cc2O)cc1
IC50 [3]: 0.109 µM | IC50 [5]: 0.206 µM | IC50 [6]: 0.066 µM

CC(=O)Nc1ccc(CN(C(=O)c2ccc(O)cc2O)c2ccc(C(=O)O)cc2)cc1
IC50 [5]: 7.22 µM | IC50 [6]: 4.67 µM

CN(C)C(=O)c1ccc(N(Cc2ccc(F)cc2)C(=O)c2ccccc2O)cc1
IC50 [5]: > 10 µM | IC50 [6]: > 10 µM

CN(C)C(=O)c1ccc(N(Cc2ccc(F)cc2)C(=O)c2ccc(O)cc2O)cc1
GI50 (DU-145 [1]): 69.7 µM | IC50 [2]: 0.142 µM | IC50 [3]: 0.067 µM | IC50 (Heat shock protein HSP90): 5.2 µM | GI50 (NCI-H1299 [4]): 57.1 µM | IC50 [5]: 0.113 µM | IC50 [6]: 0.052 µM

CN(C)C(=O)c1ccc(N(Cc2ccc(O)cc2)C(=O)c2ccc(O)cc2O)cc1
GI50 (DU-145 [1]): 3.5 µM | IC50 (Cytochrome P450 3A4): 6.47 µM | IC50 (Cytochrome P450 2C19): > 20 µM | IC50 [2]: 0.136 µM | IC50 (Cytochrome P450 2C9): 13.4 µM | IC50 [3]: 0.113 µM | IC50 (Heat shock protein HSP90): > 10 µM | GI50 (NCI-H1299 [4]): 4.9 µM | IC50 [5]: 0.15 µM | IC50 (Cytochrome P450 1A2): > 20 µM | IC50 [11]: 1.31 µM | IC50 [6]: 0.034 µM | IC50 (Cytochrome P450 2D6): > 20 µM | IC50 [16]: 1.46 µM

— ChEMBL document CHEMBL4402524, “Identification of Novel Resorcinol Amide Derivatives as Potent and Specific Pyruvate Dehydrogenase Kinase (PDHK) Inhibitors” (J Med Chem, 2019)
